Assay results: PubChem BioAssay (NCI)
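Compound exposure: 48 hours, 5 concentrations, 96-well plates. At the GI50, growth is halved. The concentration for full growth arrest is given as TGI.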

How the values were obtained:
Test in all cases: DTP human tumour cell line panel, 48 h
A498 renal = tested on: A498 renal
ACHN renal = tested on: ACHN renal
EKVX NSCLC = tested on: EKVX NSCLC
MALME-3M melanoma = tested on: MALME-3M melanoma
MDA-MB-231 breast = tested on: MDA-MB-231 breast
MOLT-4 leukemia = tested on: MOLT-4 leukemia
NCI-H226 lung = tested on: NCI-H226 lung
PC-3 prostate = tested on: PC-3 prostate
SF-539 CNS = tested on: SF-539 CNS
TK-10 renal = tested on: TK-10 renal

SMILES | GI50 (A498 renal) [µM] | TGI (A498 renal) [µM] | GI50 (ACHN renal) [µM] | TGI (ACHN renal) [µM] | GI50 (EKVX NSCLC) [µM] | TGI (EKVX NSCLC) [µM] | GI50 (MALME-3M melanoma) [µM] | TGI (MALME-3M melanoma) [µM] | GI50 (MDA-MB-231 breast) [µM] | TGI (MDA-MB-231 breast) [µM] | GI50 (MOLT-4 leukemia) [µM] | TGI (MOLT-4 leukemia) [µM] | GI50 (NCI-H226 lung) [µM] | TGI (NCI-H226 lung) [µM] | GI50 (PC-3 prostate) [µM] | TGI (PC-3 prostate) [µM] | GI50 (SF-539 CNS) [µM] | TGI (SF-539 CNS) [µM] | GI50 (TK-10 renal) [µM] | TGI (TK-10 renal) [µM]
O=C(NNc1nc2c(F)cccc2n2cccc12)c1cnccn1 | 2.18 | 10.3 | 0.25 | 36 | 0.421 | 30 | 1.63 | > 77.1 | 0.834 | 24.8 | 0.302 | > 100 | 0.522 | 7 | 0.393 | 39.5 | 0.487 | 14.5 | 5.05 | 60.9
Brc1cccc(-c2cc(-c3ccc4c(c3)OCCO4)[nH]n2)c1 | 0.563 | 3.89 | 1.54 | 33.2 | 7.21 | 49.6 | 1.3 | 53.4 | 3.65 | 32.7 | 1.09 | 101 | 12.1 | 60.9 | 1.44 | 41.4 | 1.8 | 8.48 | 3.3 | 40.7
O=C(Nc1cccc(-n2ccc3c(NC(=O)c4ccccc4)nccc32)c1)c1cccc(C(F)(F)F)c1 | 0.02 | 0.0772 | 0.0782 | 12.5 | 0.0715 | > 100 | 0.0464 | 10.4 | 0.0533 | 1.29 | 0.168 | > 100 | 0.153 | > 68.6 | 0.0434 | > 100 | 0.0314 | 2.14 | 0.103 | 19.4
COC1(C(=O)N2Cc3nc(Cl)nc(N[C@H](C)c4cc(N)cc(C(F)(F)F)c4)c3C2)CCOCC1 | 11.2 | 58.6 | 18.5 | 71.4 | 14.1 | > 100 | 17.3 | 43 | 15.9 | 31.3 | 9.05 | 50.5 | 18.2 | 72.2 | 21.3 | > 91.8 | 15.2 | 29.8 | 1.23 | 45.8
Cc1ccn2c3c(c(C(=O)O)c2c1)C(=O)c1ccccc1C3=O | 5.01 | 40.5 | > 96.4 | > 100 | 48 | > 100 | 0.48 | 1.92 | 11.8 | > 100 | > 100 | > 100 | 2.46 | 17.4 | > 100 | > 100 | 4.46 | 64.7 | > 100 | > 100
CC(C)(C)OC(=O)NC(Cc1ccccc1)C(=O)OCN1C(=O)C2C3C=CC(C2C1=O)C1C2C(=O)N(COC(=O)C(Cc4ccccc4)NC(=O)OC(C)(C)C)C(=O)C2C31 (stereo not drawn) | – | > 90.9 | – | > 100 | – | > 100 | – | > 100 | – | > 94.2 | – | 82.4 | – | > 96.4 | – | > 100 | – | > 100 | – | > 91.2
C#Cc1cnc(=O)n(C2CC(O)C(CO)O2)c1 (stereo not drawn) | > 100 | > 100 | > 100 | > 100 | > 100 | > 100 | > 100 | > 100 | > 100 | > 100 | 98.9 | > 100 | > 100 | > 100 | 3.36 | 11.3 | > 100 | > 100 | > 100 | > 100
N#CC(=C1SCS1)[N+](=O)[O-] | 2.31 | 12.7 | 2.4 | 13.2 | 12.4 | 31.1 | 3.21 | 18.1 | 4.94 | 20.4 | 0.639 | 6.5 | 16.7 | 62.8 | 5.11 | 20.7 | 2.23 | 12.7 | 3.68 | 13.4
CC(=O)OCC1OC(O[C@@H]2C[C@H]3C(C)(C)[C@H](OC(C)=O)CC[C@]3(C)[C@H]3CCC4=C([C@@H](C)C[C@@H](O)[C@H](O)C(C)(C)O)CC[C@@]4(C)[C@@]32C)C(O)C(O)C1O (stereo partly drawn) | 17.2 | 31.1 | 17.8 | 31.9 | 16.9 | 31 | 16.5 | 30.4 | 11.6 | 23.8 | 13.3 | 35.3 | 17.3 | 32 | 14.5 | 27.9 | – | – | – | –
CC(=O)c1ccc(Nc2cc(-c3ccccc3)nc3c(O)cccc23)cc1 | 25.3 | 71.7 | 20.5 | 74.1 | 28.7 | > 100 | 19.6 | 68.3 | 24 | 55.7 | – | – | 28.2 | > 100 | 8.62 | > 100 | 21.5 | 68.4 | 18.1 | 84.8
Oc1ccccc1/C=N/Nc1ccc2ccccc2n1 | 7.03 | > 100 | 2.86 | 68.6 | – | – | 8.18 | > 100 | 3.35 | > 100 | 2.6 | > 100 | 4.6 | > 100 | 4.5 | > 100 | 3.5 | 59.4 | 7.69 | 77.5
CN1CCN(CC#Cc2cccc(C(=O)c3cnn(-c4ccc(F)cc4)c3N)c2)CC1 | > 25 | > 25 | > 25 | > 25 | – | – | > 25 | > 25 | > 25 | > 25 | > 25 | > 25 | > 25 | > 25 | > 25 | > 25 | > 25 | > 25 | > 25 | > 25
CN=C(N)N/N=C(\c1ccccc1)c1ccc(Br)cc1 | 0.232 | 1.01 | 0.467 | 10.1 | – | – | 1.13 | 4.24 | 0.358 | 2.09 | 0.362 | 7.3 | 1.09 | 11.8 | 0.402 | 11 | 0.218 | 0.537 | 0.709 | 8.47
